Data as given in US12133856B2, “Multi-substituent psilocybin derivatives and methods of using” (Enveric Biosciences Canada Inc., priority 2021, dated 2024).
Read-outs that look alike come from different tables or passages of the source.

Key:
5-HT1A receptor = biological target: T1, 5-HT1A receptor (Homo sapiens, UniProt P08908); test: cAMP-Glo assay of 5-HT1A receptor modulation with 4 μM forskolin in CHO-K1/5-HT1A/Gα15 (+5-HT1A) versus CHO-K1/Gα15 (−5-HT1A) cells; format: cell-based; conditions: fixed 4 μM forskolin; cAMP relative (%) to ligand-free samples; decrease = 5-HT1A activity, no difference = no modulation
T1 construct: host or cells: CHO-K1 (co-expressing Gα15)
T1 sequence (P08908 1-422): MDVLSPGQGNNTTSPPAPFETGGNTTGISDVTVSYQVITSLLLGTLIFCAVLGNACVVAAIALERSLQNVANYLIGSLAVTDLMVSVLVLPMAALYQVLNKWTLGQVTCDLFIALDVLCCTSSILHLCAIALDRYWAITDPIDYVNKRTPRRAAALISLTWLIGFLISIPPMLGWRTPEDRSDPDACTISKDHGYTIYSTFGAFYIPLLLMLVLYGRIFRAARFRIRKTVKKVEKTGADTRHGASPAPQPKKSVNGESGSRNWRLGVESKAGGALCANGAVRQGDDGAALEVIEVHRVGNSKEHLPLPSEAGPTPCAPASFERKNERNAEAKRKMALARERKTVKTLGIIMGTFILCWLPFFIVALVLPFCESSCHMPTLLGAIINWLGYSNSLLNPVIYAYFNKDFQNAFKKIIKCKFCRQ
Description: CHO-K1/Gα15 (GenScript, M00257) (−5-HT1A) and CHO-K1/5-HT1A/Gα15 (GenScript, M00330) (+5-HT1A) cells lines were used. Briefly, CHO-K1/Gα15 is a control cell line that constitutively expresses Gα15 which is a promiscuous Gq protein. This control cell line lacks any transgene encoding 5-HT1A receptors, but still responds to forskolin; thus, cAMP response to forskolin should be the same regardless of whether or not 5-HT1A agonists are present. Conversely, CHO-K1/5-HT1A/Gα15 cells stably express 5-HT1A receptor in the CHO-K1 host background. […] In +5-HT1A cells, Gα15 may be recruited in place of Gαi/o, which could theoretically dampen cAMP response (Rojas and Fiedler 2016, Front Cell Neurosci 10: 272). […] In contrast, tryptophan is not known to activate, or modulate in any way, 5-HT1A receptors, and was thus used as a negative control. Cells were maintained in complete growth media as recommended by supplier (GenScript) which is constituted as follows: Ham's F12 Nutrient mix (HAM's F12, GIBCO #11765-047) with 10% fetal bovine serum (FBS) (Thermo Scientific #12483020), 200 μg/ml zeocin (Thermo Scientific #R25005) and/or 100 μg/ml hygromycin (Thermo Scientific #10687010). The cells were cultured in a humidified incubator with 37° C. and 5% CO2. Cells maintenance was carried out as recommended by the cell supplier. Briefly, vials with cells were removed from the liquid nitrogen and thawed quickly in 37° C. water bath. Just before the cells were completely thawed the vial's outside was decontaminated by 70% ethanol spray. The cell suspension was then retrieved from the vial and added to warm (37° C.) complete growth media, and centrifuged at 1,000 rpm for 5 minutes. The supernatant was discarded, and the cell pellet was then resuspended in another 10 ml of complete growth media, and added to the 10 cm cell culture dish (Greiner Bio-One #664160). The media was changed every third day until the cells were about 90% confluent. The ˜90% confluent cells were then split 10:1 for maintenance or used for experiment.
As 5-HT1A activation inhibits cAMP formation, the ability of test molecules to modulate 5-HT1A response was measured via changes in the levels of cAMP produced due to application of 4 μM forskolin. […] Briefly, +5-HT1A cells were seeded on 1-6 columns and base −5-HT1A cells were seeded on columns 7-12 of the white walled clear bottom 96-well plate (Corning, #3903). Both cells were seeded at the density of 30,000 cells/well in 100 μl complete growth media and cultured 24 hrs in humidified incubator at 37° C. and 5% CO2. On the experiment day, the media of cells was replaced with serum/antibiotic free culture media. […] Forskolin induced cAMP formation whereas IBMX and RO 20-1724 inhibited the degradation of cAMP. PKA was added to the lysate, mixed, and subsequently the substrate of the PKA was added. PKA was activated by cAMP, and the amount of ATP consumed due to PKA phosphorylation directly corresponded to cAMP levels in the lysate.

5-HT2A [1] = biological target: T2, 5-HT2A (Homo sapiens, UniProt P28223); test: Radioligand competition binding assay with [3H]ketanserin (scintillation proximity assay) on membranes containing 5-HT2A; parameters: purchased PerkinElmer ES-313-M400UA; conditions: for competition binding curve result at 5-HT2A receptor (binding / no binding): controls, FIG. 15C
T2 sequence (P28223 whole entry): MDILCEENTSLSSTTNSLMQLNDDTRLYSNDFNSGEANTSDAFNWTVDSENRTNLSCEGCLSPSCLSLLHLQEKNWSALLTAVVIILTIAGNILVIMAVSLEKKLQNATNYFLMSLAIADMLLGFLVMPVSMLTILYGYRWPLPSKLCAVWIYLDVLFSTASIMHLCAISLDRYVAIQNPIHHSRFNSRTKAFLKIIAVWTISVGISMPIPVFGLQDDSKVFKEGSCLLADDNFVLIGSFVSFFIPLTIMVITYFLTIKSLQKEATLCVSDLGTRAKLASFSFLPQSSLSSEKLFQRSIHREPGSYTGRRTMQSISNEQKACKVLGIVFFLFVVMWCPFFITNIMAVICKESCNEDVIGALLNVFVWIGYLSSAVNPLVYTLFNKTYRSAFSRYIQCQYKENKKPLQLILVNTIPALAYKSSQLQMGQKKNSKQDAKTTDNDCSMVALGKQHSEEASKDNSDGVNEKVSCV
Method: Ki values were calculated from the competition displacement data using the competitive binding analysis from GraphPad PRISM software.

5-HT2A [2] = biological target: T2, 5-HT2A; conditions: cited from earlier work

CC(=O)NCCc1c[nH]c2cc(F)cc(N)c12 [(IX)]
% cAMP in +5HT1A compared to −5HT1A cultures as dosages increase (5-HT1A receptor): no significant difference
specific binding in competition with [3H]ketanserin for 5-HT2A sites (competition not complete) (5-HT2A [1]; fixed 1 nM [3H]ketanserin, test compound 3 nM to 1 mM, FIG. 15D): ~50%

CC(=O)NCCc1c[nH]c2cc(NC(C)=O)cc(F)c12 [(X)]
% cAMP in +5HT1A compared to −5HT1A cultures as dosages increase (5-HT1A receptor): no significant difference
Ki value at 5-HT2A compared with that of psilocin (in words) (5-HT2A [1]; [3H]ketanserin competition, FIG. 16B, indicates comparatively 'loose' binding): relatively high

CNC(C)Cc1ccc2c(c1)OCO2 (centres unmarked) [MDMA]
Ki values for 5-HT2A (in words) (5-HT2A [2]): micromolar range

COc1cc(CCN)cc(OC)c1OC [mescaline]
Ki values for 5-HT2A (in words) (5-HT2A [2]; literature values signifying mild or 'loose' binding profiles): micromolar range

CN(C)CCc1c[nH]c2cccc(O)c12 [psilocin]
% cAMP in +5HT1A compared to −5HT1A cultures as dosages increase (5-HT1A receptor): decreased % cAMP
competition binding curve result at 5-HT2A receptor (binding / no binding) (5-HT2A [1]; fixed 1 nM [3H]ketanserin): binding

NCCc1c[nH]c2ccc(O)cc12 [serotonin]
% cAMP in +5HT1A compared to −5HT1A cultures as dosages increase (5-HT1A receptor): decreased % cAMP

N[C@@H](Cc1c[nH]c2ccccc12)C(=O)O [tryptophan]
% cAMP in +5HT1A compared to −5HT1A cultures as dosages increase (5-HT1A receptor): no significant difference
competition binding curve result at 5-HT2A receptor (binding / no binding) (5-HT2A [1]; fixed 1 nM [3H]ketanserin): no binding
